Test results: US9018226B2, “Antipsychotic agents and standardized antipsychotic fractions from Rauwolfia tetraphylla and process of their isolation” (Council of Scientific & Industrial Research, priority 2009, dated 2015)

Experiments:
alpha-2 adrenoceptor = conditions: rats and mice; cited from earlier work
alpha-2 adrenoceptors = conditions: in vivo; cited from earlier work
[1] = system: amphetamine induced hyperactive mouse model; assay: amphetamine induced hyperactivity mouse model; assay type: in vivo, Swiss mice; conditions: for in-vivo antipsychotic activity, in words: mouse
Experimental: (§1) The above fractions were evaluated for their antipsychotic activity. In order to assess the antipsychotic potential of MeOH extract, its various fractions, alkaloids isolated and their derivatives from Rauwolfia tetraphylla leaf, amphetamine induced hyper activity mouse model was used following the method of Szewczak et al (1987). Adult Swiss mice of either sex (25±2 g body weight) obtained from the Indian Institute of Toxicology Research (IITR), Lucknow, India animal-breeding colony were used throughout the experiment. The animals were housed in plastic polypropylene cages under standard animal house conditions with a 12 hours light/dark cycle and temperature of 25±2° C. The animals had adlibitum access to drinking water and pellet diet (Hindustan Lever Laboratory Animal Feed, Kolkata, India). The Animal Care and Ethics Committee of IITR approved all experimental protocols applied to animals.
Mice were injected with amphetamine (5 mg/kg, i.p.) 60 minutes after oral treatment with respective extract in each group.
as §1, with “In” for “The above fractions were evaluated for their antipsychotic activity. In”
The mice randomly grouped in batches of seven animals per group. The basal motor activity (distance traveled) of each mouse was recorded individually using automated activity monitor (TSE, Germany). After basal activity recording, a group of seven animals were challenged with amphetamine [[…], intra peritoneal (i.p) dissolved in normal saline]. After 30 min. amphetamine injection, motor activity was recorded for individual animal for 5 min.
The difference in motor activity as indicated by distance traveled in animals with amphetamine alone treated and animals with samples plus amphetamine challenge was recorded as inhibition in hyperactivity caused by amphetamine and the data presented as percent inhibition in amphetamine induced hyperactivity.

Structure (SMILES): c1ccc2c(c1)OCC(C1=NCCN1)O2 (stereo not shown) [RX 781094]
- effectiveness relative to α-yohimbine in antagonizing clonidine hypotension and sedation (alpha-2 adrenoceptor): approximately 3 times

Structure (SMILES): COC(=O)[C@H]1[C@H]2C[C@H]3c4[nH]c5ccccc5c4CCN3C[C@H]2CC[C@@H]1O [Compound K001, 17α-hydroxy-20α-yohimban-16β-carboxylic acid methyl ester]
- alpha-2 adrenoceptor selectivity relative to RS 21361 (alpha-2 adrenoceptors): ~2 times
- alpha-2 adrenoceptor selectivity relative to RX 781094 (alpha-2 adrenoceptors): about 25 times
- inhibition in amphetamine induced hyperactivity mice model ([1]; 6.25 mg/Kg): > 60%
- in-vivo antipsychotic activity, in words [1]: significant in-vivo antipsychotic activity at lower doses
- in-vivo antipsychotic activity, in words ([1]; listed as α-yohimbine (K001)): more active even at lower doses

Structure (SMILES): CC(N)Cc1ccccc1 (stereo not shown) [Amphetamine]
- Distance traveled ([1]; amphetamine alone, 5 mg/Kg i.p.): 6064 cm

Structure (SMILES): COC(=O)[C@H]1[C@H]2C[C@@H]3c4[nH]c5cc(OC)ccc5c4CCN3C[C@H]2C[C@@H](OC(=O)c2cc(OC)c(OC)c(OC)c2)[C@@H]1OC [Reserpine]
- Anti-psychotic activity (% inhibition in amphetamine induced hyperactivity) ([1]; dose 5 mg/Kg): 34%
- Distance traveled ([1]; dose 5 mg/Kg, amphetamine 5 mg/kg i.p. 60 minutes later): 4002 cm
- Distance traveled ([1]; dose […], amphetamine 5 mg/kg i.p. 60 minutes later): 5093 cm
